According to publication PMC4074815, “An Impermeant Ganetespib Analog Inhibits Extracellular Hsp90-Mediated Cancer Cell Migration that Involves Lysyl Oxidase 2-like Protein” (Cancers, 2014):
pIC50: −log10 of the molar value.

Biological target: T1, Hsp90 alpha (Homo sapiens, UniProt P07900)
T1 construct: gene HSP90AA1; Hsp90alpha recombinant enzyme (BPS Bioscience Hsp90α assay kit, Cat #50294)
Test: fluorescence polarization competition with FITC-labeled geldanamycin
Format: binding

pIC50: 7.21
Structure (SMILES): CC(C)c1cc(-c2nnc(O)n2-c2ccc3c(ccn3CCNC(=O)CCCC[C@@H]3SC[C@@H]4NC(=O)N[C@@H]43)c2)c(O)cc1O [STA-12-7191]
